Here are results for 2 substances from patent publication US8163709B2, “TAK1-D mediated induction of cell death in human cancer cells by specific sequence short double-stranded RNAS” (Board of Regents of the University of Texas System, priority 2008, dated 2012).

In data set [1] the test system is p38. Description: p38 activation in mouse peritoneal macrophages. The data set is classed as cell-based. The following applies: 4 h. As for the experimental part: It has been reported (Dempsey et al., 2000) that the splicing variant D of TAK1 could not be detected in many cell lines despite its expression in the parental tissue, most probably due to downregulation of the transcript during in vitro culture. Therefore, the inventors used macrophages 24 h after obtaining them from athymic NCR-NU/NU female mice by peritoneal lavage.

Data set [2] relates to NF-κB. As to the kind of experiment: NF-κB activation in H460 cells (EMSA, IKKα/β phosphorylation). The data set is classed as cell-based, human. The following applies: hours after transfection (3 h, 6 h). As for the experimental part: EMSA. Electrophoretic mobility shift assays for NFκB were performed as described previously (Kurland et al., 2001) using 3.5 μg of nuclear protein for each reaction.
FIG. 16B illustrates the effect of dominant-negative TAK1-D/K63W on dsRNA si5 induced cell death. […] As a slight growth inhibition of si5 transfected H460-K63W cells can be observed in FIG. 16B it is interesting to ask whether this is caused by an incomplete suppression of TAK1-D activity or by activation of other dsRNA-dependent stress pathways. To answer this question, the activation of the transcription factor NF-κB by dsRNA si5 was tested, as it well established that dsRNA triggered activation of PKR (Zamanian-Daryoush et al., 2000), TLR3 (Jiang et al., 2003), and RIG1/Mda-5 (Hiscott et al., 2006) leads to a downstream activation of NF-κB.

The subject of data set [3] is H460 cells. Description: Protein synthesis by [35S] methionine incorporation in H460 cells. The data set is classed as cell-based, human. The conditions noted are these: for protein synthesis by [35S] methionine incorporation: 4 h. As for the experimental part:
On the next day cells were incubated with the dsRNAs for the given amount of time. Ten minutes prior to labeling the cell culture medium was replaced with cystein/methionine free RPMI. Thereafter, cells were incubated for 15 minutes in cystein/methionine free RPMI containing 40 μC/ml [^35S] methionine (Perkin Elmer, Waltham, Mass., USA).
In order to measure the incorporated radionuclide, cells were washed 5 times with 5% TCA, once with 70% ethanol and the proteins were solubilized in SDS-PAGE sample buffer. After addition of the samples to a liquid scintillation cocktail, [^35S] activity was determined in a LS6500 scintillation counter (Beckmann).
For SDS-PAGE cells were washed 3 times with PBS and proteins were solubilized by heating in non reducing sample buffer. After determination of the protein concentration (D protein assay, Bio-Rad, Hercules, Calif., USA) samples were reduced by the addition of DTT to a final concentration of 100 mM and separated in a 4-12% Bis-Tris gradient gel (NuPAGE, Invitrogen). The gel was dried after Coomassie blue staining and autoradiography was performed using a phosphoimager (Typhoon 9410, Amerham).

Data set [4] has as its system SAPK/JNK pathway. Description: Activation of the SAPK/JNK pathway in H460 cells (Western blot). The data set is classed as cell-based, human. The conditions noted are these: for activation of the SAPK/JNK pathway (phosphorylation of MKK4, SAPK/JNK): H460 cells, 20 nM RNA, 2-6 h.
The test system of data set [5] is TLK1. As to the kind of experiment: TLK1 post-transcriptional silencing in HeLa cells (Western blot). The format is cell-based, human. The conditions noted are these: 48 h after transfection. As to the method:
In order to test whether dsRNA molecules show the same cellular uptake and stability the efficiency of these molecules to post-transcriptionally silence the expression of TLK1 was determined as si6 as well as si5 siRNA are directed against the mRNA of this protein. […] As a loading control the unchanged expression levels of TAK1-A/B and 3-tubulin are shown in the two lower panels.
A general note: Immunoblotting shows a protein as a band on a membrane.

For data set [6], the system named is p38 MAP kinase pathway. Description: Activation of the p38 MAP kinase pathway in H460 cells (Western blot). The data set is classed as cell-based, human. The following applies: for activation of the p38 MAP kinase pathway (phosphorylation of MKK3/6, p38 MAPK): H460 cells, 20 nM RNA, 2-6 h. From the text: Both siRNAs were directed against the mRNA of the same gene TLK1.

Setting [7] is: H460 stably transfected with K63W vs wt and vector, 4 h.

“Also recorded” adds a separate entry of the source. Bounds are passed on as bounds.

For “si6: control 21-mer siRNA against TLK1 mRNA: GGGUGGAAAUGGCUCAAGUtt (SEQ ID NO: 4) / gtCCCACCUUUACCGAGUUCA (SEQ ID NO: 5) (sense GGGUGGAAAUGGCUCAAGUTT; antisense GTCCCACCUUUACCGAGUUCA; chemistry not given here; one strand is listed 3' to 5') [reference compound]”, the “p38 activation by phosphorylation” value in data set [1] is “not”. In addition, in data set [2], the “activation of NF-κB (EMSA of nuclear protein)” value is reported as “neither si5 nor si6 transfection lead to an activation”. The inhibition of translation entry in data set [3] (H460, SDS-PAGE autoradiography) is on record as “No inhibition of translation was observed”. In data set [3] (H460, scintillation counting), the “[35S] methionine incorporation” value is on record as “remained unchanged”. In data set [4], the “activation of the SAPK/JNK pathway (phosphorylation of MKK4, SAPK/JNK)” value is reported as “had no effect; also recorded: does not occur; also recorded: No activation”. Also, in data set [5], the “expression level of TLK1” value is given as “drastically reduce the expression level; also recorded: reduced to almost undetectable levels; also recorded: very significant reduction in the expression of TLK1”. In addition, the “activation of the p38 MAP kinase pathway (phosphorylation of MKK3/6, p38 MAPK)” value in data set [6] is “had no effect; also recorded: does not occur; also recorded: No activation”.

“si5: 21-mer siRNA against TLK1 mRNA: GGCUUUUGACCUUUAUGAAtt (SEQ ID NO: 2) / ttCCGAAAACUGGAAAUACUU (SEQ ID NO: 3) (sense GGCUUUUGACCUUUAUGAATT; antisense TTCCGAAAACUGGAAAUACUU; chemistry not given here; one strand is listed 3' to 5')”: the “p38 activation by phosphorylation” value in data set [1] is given as “p38 is activated by phosphorylation”. Further, the “activation of NF-κB (EMSA of nuclear protein)” value in data set [2] is given as “neither si5 nor si6 transfection lead to an activation; also recorded: does not activate NF-κB”. The “[35S] methionine incorporation, of its initial value” in data set [3] (H460, after 4 hours, scintillation counting) is on record as “about 60%”. Moreover, in data set [3] (H460, after transfection), the “time until [35S] methionine incorporation significantly reduced” value was at most 1 h. The “[35S] methionine incorporation, of initial value” in data set [3] (H460, within first 4 hours, SDS-PAGE autoradiography) is listed as “about 50%”. In addition, the “protein synthesis by [35S] methionine incorporation” value in data set [3] (TAK1-D/K63W transfected H460, 10 nM) is given as “could not be observed; also recorded: no change in protein synthesis can be detected”; in data set [3] (wild-type and vector transfected H460, 10 nM), “significant reduction in mRNA translation; also recorded: drops significantly”. For the same substance, the “activation of the SAPK/JNK pathway (phosphorylation of MKK4, SAPK/JNK)” value was “activation of the stress-activated protein kinase jun-amino-terminal kinase (SAPK/JNK) pathway” in data set [4]; “phosphorylation and activation of MKK3/6 as well as MKK4” in data set [4] (listed as Si5). Further, the “activating phosphorylation of SAPK/JNK in TAK1-D/K63W transfected cells” value in data set [4] (setting [7]) was “very significant reduction; also recorded: significantly reduced”. Besides, in data set [5], the “expression level of TLK1” value is “drastically reduce the expression level; also recorded: reduced to almost undetectable levels; also recorded: very significant reduction in the expression of TLK1”. The “induced activating phosphorylation of p38 MAPK in cells expressing dominant-negative Tak1-D (K63W)” value in data set [6] (H460, adenoviral K63W vs β-galactosidase vector, 20 nM dsRNA 4 h) is “significantly reduced”. Besides, the “activation of the p38 MAP kinase pathway (phosphorylation of MKK3/6, p38 MAPK)” value in data set [6] is “activation of the p38 MAP kinase pathway; also recorded: able to activate Tak1-D and consecutively p38 MAPK; also recorded: activate the pathway most effectively”; in data set [6] (listed as Si5), “phosphorylation and activation of MKK3/6 as well as MKK4”. The “activating phosphorylation of p38 MAP kinase in TAK1-D/K63W transfected cells” value in data set [6] (setting [7]) was “very significant reduction; also recorded: significantly reduced”.
